The test system of assay [1] is A549/CDDP (A549 cell line resistant to cisplatin). Kind of assay: CCK-8 cytotoxicity, A549/CDDP. The format is cell-based. Particulars: Homo sapiens, 48 h, CCK-8, cisplatin-resistant, read-out: IC50, Mean ± SE, A549/CDDP. On the procedure:
(§1) Besides the high cytotoxicity, drug resistance is the other limiting factor of chemotherapeutics. In this study, the cytotoxicities of compound 14b towards five kinds of drug-resistant cancer cell lines were also evaluated. Except three kinds of cell lines that are resistant to three drugs commonly used in clinical practice, two kinds of cell lines that are resistant to MTAs were also evaluated.
(§2) A549 (non-small-cell-lung cancer cell line), Caski (human epithelial cervical cancer cell line), HepG2 (human liver carcinoma cell line), MCF-7 (human breast carcinoma cell line), C42B (human prostate cancer line C42B), L-02 (human normal hepatocytes), RWPE-1 (human prostate epithelial cells) and MCF-10A (human normal mammary epithelial cells) were obtained from National Collection of Authenticated Cell Cultures (Shanghai, China). […]
(§3) After 24 h, the medium containing different concentrations of tested compounds were added for another 48 h. […] The optical density was recorded with a microplate reader at 570 nm (Thermo Scientific, Varioskan LUX). All the experiments were repeated independently at least three times and the IC50 values were calculated […]

In assay [2] the test system is MCF-7/DOX (MCF-7 cell line resistant to doxorubicin). Kind of assay: CCK-8 cytotoxicity, MCF-7/DOX. The note with it: Homo sapiens, MCF7-DOX; 48 h, CCK-8, doxorubicin-resistant; read-out: IC50, Mean ± SE, MCF-7/DOX. The format is cell-based. On the procedure: as §1, §2, §3
(§4) The fluorescence intensity enhancement (emission wavelength is 410 nm, excitation wavelength is 340 nm) was recorded every 60 s for 60 min in a multifunction microplate reader (Molecular Devices, Flex Station 3). […]

Assay [3] concerns A549 (human non-small-cell-lung cancer cell line). Briefly: CCK-8 antiproliferative assay, A549. The format is cell-based. Particulars: 48 h, read-out: IC50, Mean ± SE, A549. (Formazan colour is commonly taken as a measure of viable cells.)
Assay [4] relates to five kinds of human cancer cell lines (A549, Caski, HepG2, C42B, MCF-7). Briefly: CCK-8 assay, panel of five human cancer cell lines. The note with it: 48 h, read-out: IC50 values, range over five human cancer cell lines. The format is cell-based.
The subject of assay [5] is A549 cells. Briefly: cell cycle analysis by flow cytometry (PI). Format: cell-based, human. Particulars: 24 h, control 14.92%. On the procedure: Microtubules play an important role in maintaining the normal process of cell mitosis.
Figure 3 Compound 14b induced cell cycle arrest at the G2/M phase. (A) The PI-stained DNA content detected by flow cytometry. A549 cells were treated with or without compound 14b at concentrations of 10, 20 and 50 nM for 24 h; then, the cells were harvested for cell cycle analysis by flow cytometry. (B) Quantitative analysis of the percentage of cells in each cell cycle phase by CytExpert analysis software. The experiments were performed at least three times, and the results of the representative experiments are shown.
S Ⅳ. Biological evaluation methods
The cells grown in logarithmical phase were seeded in 96-well plates with the density of 5×10^3/well.
After 24 h, the medium containing different concentrations of tested compounds were added for another 48 h. Then, CCK-8 reagents were added to cells and continued to culture for 2 h. The optical density was recorded with a microplate reader at 570 nm (Thermo Scientific, Varioskan LUX). All the experiments were repeated independently at least three times and the IC50 values were calculated […]
S2. In vitro tubulin polymerization inhibition assay
The in vitro tubulin polymerization inhibition assay was conducted according to the manufacturer ’s instruction (cytoskeleton, cat. no. BK011P). Briefly, 5 μL of the tested compounds at the indicated concentrations which were prepared with the buffer solution (containing 80.0 mM piperazine-N,N-bis(2-ethanesulfonic acid) sequiso-dium salt (pH 6.9), 10.2% glycerol, 2.0 mM MgCl2, 1 mM GTP, and 0.5 mM EGTA) was added to the plate. After the mixture was warmed to 37 °C for 1 min, the reaction was initiated by the addition of 55 μL of the tubulin solution which was kept on ice in prior.
as §4

Turning to `COc1ccc(C(=O)c2ccc3c(ccn3C)c2)c2c1C=CC(C)(C)O2` [compound 14b, (5-methoxy-2,2-dimethyl-2H-chromen-8-yl)(1-methyl-1H-indol-5-yl)methanone], the IC50 in assay [1] was 35 ± 21 nM; in assay [2], 51 ± 24 nM; in assay [3], 22 ± 2 nM; in assay [4], 22 to 74 nM. For the same molecule, the “percentage of cells in G2/M” value is 26.88% in assay [5] (A549, 10 nM); 35.02% in assay [5] (A549, 20 nM); 52.67% in assay [5] (A549, 50 nM).

The values above are taken from paper PMC9921564, “Novel Indole-Containing Hybrids Derived from Millepachine: Synthesis, Biological Evaluation and Antitumor Mechanism Study” (Molecules, 2023).
